Experimental data reported in patent US10869474B2, “Fungicidal compositions” (UNIVERSITÄT BASEL, priority 2016, dated 2020).
In brackets after ≈: the same amount, converted by molar mass. Like-named read-outs stand apart in the source and are kept apart here.

Key:
Plasmopara viticola [1] = assay: In vitro bioassay in 96-well plates, minimal inhibitory concentration (MIC100); assay type: cell-based; conditions: for MIC: Plasmopara viticola, read-out: Minimal inhibitory concentration (MIC100) against P. viticola
Venturia inaequalis [2] = assay: as above; assay type: cell-based; conditions: for MIC: Venturia inaequalis, 48 h, read-out: Minimal inhibitory concentration (MIC100) against V. inaequalis
Phytophthora infestans = assay: microbe, parasite or virus in culture; assay type: cell-based; conditions: complete inhibition of germination, assessed after one day, Table 2 values are means of N independent experiments; for MIC: Phytophthora infestans, 24 h, read-out: Minimal inhibitory concentration (MIC100) against P. infestans, in vitro; for Minimal inhibitory concentration (MIC100) against P. infestans: in vitro
Plasmopara viticola [3] = assay: Plant-pathogen bioassay on grapevine seedlings under semi-controlled conditions; assay type: in vivo; conditions: grapevine cv. Chasselas seedlings, n = 6, Table 5
Venturia inaequalis [4] = assay: Plant-pathogen bioassay on apple seedlings under semi-controlled conditions; assay type: in vivo; conditions: apple cv. Jonagold seedlings, n = 6, Table 7
[5] = in vitro, complete inhibition of zoospore activity, assessed after 2-3 h, Table 2 values are means of N independent experiments
[6] = in vitro, complete inhibition of germination, assessed after two days, Table 2 values are means of N independent experiments

O=C(/C=C/c1ccccc1)OCc1ccccc1 [BC, benzyl cinnamate]
MIC (Plasmopara viticola [1]): 8 µg/mL (≈ 33.6 µM) | MIC (Venturia inaequalis [2]): > 500 µg/mL | MIC (Phytophthora infestans): 500 µg/mL (≈ 2100 µM)

COc1cc(/C=C/COC(=O)c2ccccc2)ccc1O [CB, coniferyl benzoate]
MIC (Plasmopara viticola [1]; [5]): 8 to 32 µg/mL (≈ 28.1 to 113 µM) | Minimal inhibitory concentration (MIC100) against P. viticola (Plasmopara viticola [1]; [5]): 12 µg/mL (≈ 42.2 µM) | Minimal inhibitory concentration (MIC100) against V. inaequalis (Venturia inaequalis [2]; [6]): 35 µg/mL (≈ 123 µM) | Minimal inhibitory concentration (MIC100) against P. infestans (Phytophthora infestans): 21 µg/mL (≈ 73.9 µM) | Efficacy against P. viticola, mean ± SD (Plasmopara viticola [3]; pure compound 0.25 mg ml^−1): 85 ± 14% | Efficacy against P. viticola, mean ± SD (Plasmopara viticola [3]; pure compound 0.5 mg ml^−1): 77 ± 50% | Efficacy against P. viticola, mean ± SD (Plasmopara viticola [3]; pure compound 1 mg ml^−1): 99 ± 1% | Efficacy Mean ± SD (Venturia inaequalis [4]; CB 0.1 mg ml^−1): 4 ± 53% | Efficacy Mean ± SD (Venturia inaequalis [4]; CB 1 mg ml^−1): 69 ± 12% | Efficacy Mean ± SD (Venturia inaequalis [4]; CB 1 mg ml^−1, listed as coniferyl benzoate): 70%

O=C(/C=C/c1ccccc1)OC/C=C/c1ccc(O)cc1 [CC, p-coumaryl cinnamate]
Minimal inhibitory concentration (MIC100) against P. viticola (Plasmopara viticola [1]; [5]): 38 µg/mL (≈ 136 µM) | MIC (Venturia inaequalis [2]; [6]): 16 to 64 µg/mL (≈ 57.1 to 228 µM) | Minimal inhibitory concentration (MIC100) against V. inaequalis (Venturia inaequalis [2]; [6]): 32 µg/mL (≈ 114 µM) | MIC (Phytophthora infestans): 16 to 64 µg/mL (≈ 57.1 to 228 µM) | Minimal inhibitory concentration (MIC100) against P. infestans (Phytophthora infestans): 25 µg/mL (≈ 89.2 µM) | Efficacy against P. viticola, mean ± SD (Plasmopara viticola [3]; pure compound 0.25 mg ml^−1): 80 ± 16% | Efficacy against P. viticola, mean ± SD (Plasmopara viticola [3]; pure compound 0.5 mg ml^−1): 95 ± 6% | Efficacy against P. viticola, mean ± SD (Plasmopara viticola [3]; pure compound 1 mg ml^−1): 98 ± 1%
